In patent US20220000871A1, “METHODS AND COMPOSITIONS FOR TREATING NEURODEGENERATIVE DISEASES USING MODULATORS OF PHOSPHOGLYCERATE KINASE 1 (PGK1) ACTIVITY” (UNIVERSITY OF IOWA RESEARCH FOUNDATION, priority 2019, published 2022):

System: patients with PD
Assay: Analysis of the PPMI database (MDS-UPDRS Part 3 motor progression)
Format: in vivo, human
Details: for rate of motor function decline / progression of motor disability: PPMI database, vs controls; for MDS-UPDRS Part 3 Slope of change/month, mean ± S.E.: PPMI, male PD patients, baseline to ~1 year
Description: FIG. 7. TZ and related drugs slow progression of motor defects for patients with PD enrolled in the PPMI database. MDS-UPDRS Part 3 (motor) scores of PD patients in the PPMI database. Patients were taking TZ/DZ/AZ (blue, N=13), tamsulosin (green, N=24), or neither (red, N=269). Data are scores at entry into PPMI through ˜1 year and include all measures between those times. All patients taking these drugs were males prescribed TZ/DZ/AZ or tamsulosin without breaks for benign prostatic hyperplasia or undefined urological problems. Lines are plotted from linear mixed effect regression analyses. By maximum likelihood estimation, TZ/DZ/AZ differed from controls (P=0.012).
FIG. 18. UPDRS scores for 13 patients with PD taking TZ/DZ/AZ. Each set of data points and lines indicates an individual patient. Bold line and shading indicate the linear regression line and 95% confidence intervals for the 13 patients. See legend of FIG. 7 for more information.
We analyzed data from the PPMI database (21) for patients taking TZ alone, TZ/DZ/AZ, or tamsulosin. We tested if these drugs influenced the rate of motor progression as measured by part III of the Movement Disorder Society's Unified Parkinson's Disease Rating Scale ([…]), which is a metric of motor disability in Parkinson's disease (22). For this analysis, only participants who were using TZ/DZ/AZ or tamsulosin at their baseline PPMI visit were included in the drug groups. PPMI protocol dictates that the fourth visit should occur approximately one year after the baseline visit; accordingly, any visit that occurred between the baseline visit and the fourth PPMI visit were included. Participants also had to have more than one visit to be included. Of the 13 participants in the TZ/DZ/AZ group, 11 were taking the medication-of-interest without breaks until their fourth visit. One participant was taking DZ at the time of their baseline visit, but discontinued within 30 days of their baseline visit. That participant was only considered to be using DZ during their first and second visits. Another participant was using AZ at their baseline visit and for approximately 5 months after that. This participant was considered to be taking AZ during their first and second visits. If these two participants were excluded from the analysis and only participants who were taking the medication-of-interest without breaks in therapy were included, the results change only marginally. The TZ/DZ/AZ group (n=11) has a slope of change of 0.02±0.21 compared to 0.53±0.05 in the control group (n=269, p=0.015). […]
Only MDS-UPDRS readings that were obtained when the participants were not yet taking a PD medication or were in the practically defined OFF state (at least 6 hours after the last dose of levodopa or any other anti-PD medication) were utilized for this analysis. […]

**Q.** How did the “rate of motor function decline / progression of motor disability” value turn out when CCOc1ccccc1OCCN[C@H](C)Cc1ccc(OC)c(S(N)(=O)=O)c1 [tamsulosin] was run?
**A.** failed to slow

**Q.** What about the “MDS-UPDRS Part 3 Slope of change/month, mean ± S.E.” value of the same compound?
**A.** 0.39 ± 0.14

**Q.** Which “rate of motor function decline / progression of motor disability” value does the source give for COc1cc2nc(N3CCN(C(=O)C4CCCO4)CC3)nc(N)c2cc1OC (stereo not shown) [TZ, terazosin] here?
**A.** slower

**Q.** What about the “MDS-UPDRS Part 3 Slope of change/month, mean ± S.E.” value of the same compound?
**A.** 0.01 ± 0.25
